Test results as given in PubChem BioAssay (NCI).
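Each compound was tested at five concentrations against cells in 96-well plates for 48 hours. The concentration for full growth arrest is given as TGI.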

How the values were obtained:
Test in all cases: NCI tumour cell line growth inhibition, 48 h
OVCAR-5 ovarian = test system: OVCAR-5 ovarian
NCI-H460 lung = test system: NCI-H460 lung
OVCAR-4 ovarian = test system: OVCAR-4 ovarian
COLO 205 colon = test system: COLO 205 colon
SK-MEL-5 melanoma = test system: SK-MEL-5 melanoma
RPMI-8226 leukemia = test system: RPMI-8226 leukemia
HT29 colon = test system: HT29 colon
SNB-78 CNS = test system: SNB-78 CNS
KM12 colon = test system: KM12 colon
RXF 393 renal = test system: RXF 393 renal
SF-539 CNS = test system: SF-539 CNS
NCI-H23 lung = test system: NCI-H23 lung
KM20L2 colon = test system: KM20L2 colon
SF-295 CNS = test system: SF-295 CNS
UACC-257 melanoma = test system: UACC-257 melanoma
HL-60(TB) leukemia = test system: HL-60(TB) leukemia
A498 renal = test system: A498 renal
HCT-116 colon = test system: HCT-116 colon
SNB-75 CNS = test system: SNB-75 CNS
MOLT-4 leukemia = test system: MOLT-4 leukemia
NCI-H226 lung = test system: NCI-H226 lung
786-0 renal = test system: 786-0 renal
TK-10 renal = test system: TK-10 renal
UACC-62 melanoma = test system: UACC-62 melanoma
SNB-19 CNS = test system: SNB-19 CNS
HCC-2998 colon = test system: HCC-2998 colon
RXF-631 renal = test system: RXF-631 renal
U251 CNS = test system: U251 CNS
M19-MEL melanoma = test system: M19-MEL melanoma
K-562 leukemia = test system: K-562 leukemia
DLD-1 colon = test system: DLD-1 colon
EKVX NSCLC = test system: EKVX NSCLC
HOP-92 NSCLC = test system: HOP-92 NSCLC
NCI-H522 lung = test system: NCI-H522 lung
SN12C renal = test system: SN12C renal
OVCAR-8 ovarian = test system: OVCAR-8 ovarian
ACHN renal = test system: ACHN renal
CCRF-CEM leukemia = test system: CCRF-CEM leukemia
SK-MEL-28 melanoma = test system: SK-MEL-28 melanoma
SW-620 colon = test system: SW-620 colon
LXFL 529 NSCLC = test system: LXFL 529 NSCLC
SK-OV-3 ovarian = test system: SK-OV-3 ovarian
SK-MEL-2 melanoma = test system: SK-MEL-2 melanoma
LOX IMVI melanoma = test system: LOX IMVI melanoma
UO-31 renal = test system: UO-31 renal
DMS 273 small cell lung = test system: DMS 273 small cell lung
IGROV1 ovarian = test system: IGROV1 ovarian
SF-268 CNS = test system: SF-268 CNS
CAKI-1 renal = test system: CAKI-1 renal
DMS 114 small cell lung = test system: DMS 114 small cell lung
XF 498 CNS = test system: XF 498 CNS
MALME-3M melanoma = test system: MALME-3M melanoma
A549 NSCLC = test system: A549 NSCLC
M14 melanoma = test system: M14 melanoma
HOP-62 NSCLC = test system: HOP-62 NSCLC
HOP-18 NSCLC = test system: HOP-18 NSCLC
OVCAR-3 ovarian = test system: OVCAR-3 ovarian
SR leukemia = test system: SR leukemia
HCT-15 colon = test system: HCT-15 colon
MCF7 breast = test system: MCF7 breast
NCI/ADR-RES ovarian = test system: NCI/ADR-RES ovarian
P388 leukemia = test system: P388 leukemia
P388/ADR leukemia = test system: P388/ADR leukemia
SN12K1 renal = test system: SN12K1 renal

N#CN/C(N)=N/CO
TGI (OVCAR-5 ovarian): > 100 µM | TGI (NCI-H460 lung): > 100 µM | TGI (OVCAR-4 ovarian): > 100 µM | TGI (COLO 205 colon): > 57.8 µM | TGI (SK-MEL-5 melanoma): > 100 µM | TGI (RPMI-8226 leukemia): > 76.2 µM | TGI (HT29 colon): > 100 µM | TGI (SNB-78 CNS): > 100 µM | TGI (KM12 colon): > 55.2 µM | TGI (RXF 393 renal): 43.5 µM | TGI (SF-539 CNS): > 100 µM | TGI (NCI-H23 lung): > 100 µM | TGI (KM20L2 colon): > 100 µM | TGI (SF-295 CNS): > 100 µM | TGI (UACC-257 melanoma): > 100 µM | TGI (HL-60(TB) leukemia): > 100 µM | TGI (A498 renal): > 100 µM | TGI (HCT-116 colon): > 64.4 µM | TGI (SNB-75 CNS): > 100 µM | TGI (MOLT-4 leukemia): > 100 µM | TGI (NCI-H226 lung): > 100 µM | TGI (786-0 renal): > 62.1 µM | TGI (TK-10 renal): > 100 µM | TGI (UACC-62 melanoma): > 100 µM | TGI (SNB-19 CNS): > 100 µM | TGI (HCC-2998 colon): > 100 µM | TGI (RXF-631 renal): > 100 µM | TGI (U251 CNS): > 90.2 µM | TGI (M19-MEL melanoma): > 100 µM | TGI (K-562 leukemia): > 100 µM | TGI (DLD-1 colon): > 87.8 µM | TGI (EKVX NSCLC): > 100 µM | TGI (HOP-92 NSCLC): > 100 µM | TGI (NCI-H522 lung): > 100 µM | TGI (SN12C renal): > 100 µM | TGI (OVCAR-8 ovarian): > 100 µM | TGI (ACHN renal): > 100 µM | TGI (CCRF-CEM leukemia): > 100 µM | TGI (SK-MEL-28 melanoma): > 100 µM | TGI (SW-620 colon): > 56.3 µM | TGI (LXFL 529 NSCLC): > 100 µM | TGI (SK-OV-3 ovarian): > 100 µM | TGI (SK-MEL-2 melanoma): > 100 µM | TGI (LOX IMVI melanoma): > 57.7 µM | TGI (UO-31 renal): > 100 µM | TGI (DMS 273 small cell lung): > 100 µM | TGI (IGROV1 ovarian): > 100 µM | TGI (SF-268 CNS): > 100 µM | TGI (CAKI-1 renal): > 100 µM | TGI (DMS 114 small cell lung): > 60.9 µM | TGI (XF 498 CNS): > 100 µM | TGI (MALME-3M melanoma): > 100 µM | TGI (A549 NSCLC): > 100 µM | TGI (M14 melanoma): > 100 µM | TGI (HOP-62 NSCLC): > 100 µM | TGI (HOP-18 NSCLC): > 100 µM | TGI (OVCAR-3 ovarian): > 100 µM | TGI (SR leukemia): 72.4 µM | TGI (HCT-15 colon): > 56.9 µM

CC1(C)COC(C2(C)C(=O)C=C(c3ccccc3)c3ccccc32)=N1 (configuration not stated)
TGI (NCI-H460 lung): > 100 µM | TGI (OVCAR-4 ovarian): > 100 µM | TGI (COLO 205 colon): > 100 µM | TGI (SK-MEL-5 melanoma): > 100 µM | TGI (RPMI-8226 leukemia): > 100 µM | TGI (HT29 colon): 99 µM | TGI (KM12 colon): > 100 µM | TGI (RXF 393 renal): > 100 µM | TGI (SF-539 CNS): > 100 µM | TGI (NCI-H23 lung): > 100 µM | TGI (KM20L2 colon): > 100 µM | TGI (SF-295 CNS): > 100 µM | TGI (UACC-257 melanoma): > 100 µM | TGI (HL-60(TB) leukemia): 67.7 µM | TGI (HCT-116 colon): > 100 µM | TGI (SNB-75 CNS): > 100 µM | TGI (MOLT-4 leukemia): > 100 µM | TGI (NCI-H226 lung): > 100 µM | TGI (786-0 renal): > 100 µM | TGI (TK-10 renal): > 100 µM | TGI (UACC-62 melanoma): > 100 µM | TGI (SNB-19 CNS): > 100 µM | TGI (RXF-631 renal): > 100 µM | TGI (U251 CNS): > 100 µM | TGI (M19-MEL melanoma): > 100 µM | TGI (K-562 leukemia): > 100 µM | TGI (DLD-1 colon): > 100 µM | TGI (EKVX NSCLC): > 100 µM | TGI (HOP-92 NSCLC): > 100 µM | TGI (NCI-H522 lung): > 100 µM | TGI (SN12C renal): > 100 µM | TGI (OVCAR-8 ovarian): > 100 µM | TGI (ACHN renal): > 100 µM | TGI (CCRF-CEM leukemia): > 100 µM | TGI (SK-MEL-28 melanoma): > 100 µM | TGI (SW-620 colon): > 100 µM | TGI (LXFL 529 NSCLC): > 100 µM | TGI (SK-OV-3 ovarian): 47.9 µM | TGI (SK-MEL-2 melanoma): > 100 µM | TGI (UO-31 renal): 98.6 µM | TGI (IGROV1 ovarian): > 100 µM | TGI (SF-268 CNS): > 100 µM | TGI (CAKI-1 renal): > 100 µM | TGI (DMS 114 small cell lung): > 100 µM | TGI (MALME-3M melanoma): 63.8 µM | TGI (A549 NSCLC): > 100 µM | TGI (M14 melanoma): > 100 µM | TGI (HOP-62 NSCLC): > 100 µM | TGI (HOP-18 NSCLC): > 100 µM | TGI (OVCAR-3 ovarian): > 100 µM | TGI (SR leukemia): > 100 µM | TGI (HCT-15 colon): > 100 µM

CC(C)Cc1ccc(C(C)C(=O)N2CCN(/C=C/c3ccccc3)CC2)cc1 (configuration not stated)
TGI (OVCAR-5 ovarian): 26.9 µM | TGI (NCI-H460 lung): 32.9 µM | TGI (OVCAR-4 ovarian): 25.6 µM | TGI (COLO 205 colon): 29.5 µM | TGI (SK-MEL-5 melanoma): 26 µM | TGI (RPMI-8226 leukemia): 25.6 µM | TGI (HT29 colon): 28 µM | TGI (SNB-78 CNS): 46.7 µM | TGI (KM12 colon): 31.7 µM | TGI (RXF 393 renal): 30.8 µM | TGI (SF-539 CNS): 28.9 µM | TGI (NCI-H23 lung): 27.1 µM | TGI (KM20L2 colon): 29.9 µM | TGI (MCF7 breast): 33.7 µM | TGI (SF-295 CNS): 32.2 µM | TGI (UACC-257 melanoma): 31.4 µM | TGI (HL-60(TB) leukemia): 18.7 µM | TGI (A498 renal): 31.8 µM | TGI (HCT-116 colon): 26.3 µM | TGI (SNB-75 CNS): 29.1 µM | TGI (MOLT-4 leukemia): 23.4 µM | TGI (NCI-H226 lung): 18.1 µM | TGI (UACC-62 melanoma): 26.3 µM | TGI (NCI/ADR-RES ovarian): 28.2 µM | TGI (SNB-19 CNS): 22 µM | TGI (HCC-2998 colon): 31.8 µM | TGI (P388 leukemia): 29.8 µM | TGI (U251 CNS): 25.5 µM | TGI (M19-MEL melanoma): 29.7 µM | TGI (K-562 leukemia): 29.3 µM | TGI (DLD-1 colon): 27.3 µM | TGI (EKVX NSCLC): 35 µM | TGI (HOP-92 NSCLC): 26.1 µM | TGI (NCI-H522 lung): 25 µM | TGI (SN12C renal): 30.8 µM | TGI (P388/ADR leukemia): 42.1 µM | TGI (OVCAR-8 ovarian): 29.1 µM | TGI (CCRF-CEM leukemia): 37.1 µM | TGI (SK-MEL-28 melanoma): 32.1 µM | TGI (SW-620 colon): 30.3 µM | TGI (SK-OV-3 ovarian): 30.3 µM | TGI (SK-MEL-2 melanoma): 27 µM | TGI (LOX IMVI melanoma): 33.1 µM | TGI (UO-31 renal): 24 µM | TGI (SN12K1 renal): 27.1 µM | TGI (DMS 273 small cell lung): 24.2 µM | TGI (IGROV1 ovarian): 28.7 µM | TGI (SF-268 CNS): 32 µM | TGI (DMS 114 small cell lung): 24.6 µM | TGI (XF 498 CNS): 27.3 µM | TGI (MALME-3M melanoma): 30.4 µM | TGI (A549 NSCLC): 29.7 µM | TGI (HOP-62 NSCLC): 29.7 µM | TGI (HOP-18 NSCLC): 35.9 µM | TGI (OVCAR-3 ovarian): 25.9 µM | TGI (HCT-15 colon): 27.5 µM
